# Test results reported in PMC9606171, “Synthetic PPAR Agonist DTMB Alleviates Alzheimer’s Disease Pathology by Inhibition of Chronic Microglial Inflammation in 5xFAD Mice” (Neurotherapeutics, 2022).
# Legend:
# 5xFAD mice [1] = assay: Bulk RNA-seq of hippocampus and cortex; type: in vivo
# Description: (§1) DTMB was synthesized from Daejung Chemicals (Korea) and was dissolved in dimethyl sulfoxide (Sigma Aldrich, St. Louis, MO, USA) for cell-based experiments. To evaluate the effects of DTMB on 5xFAD mice, DTMB (10 mg/kg) and vehicle (1% carboxymethylcellulose and 10% DMSO) were orally administrated to four groups (wild-type, wild-type + DTMB, 5xFAD, and 5xFAD + DTMB) with a 6 day per week for 3 months.
# RNA-seq libraries were prepared using the NEBNext® Ultra II Directional RNA Library Prep Kit for Illumina (BioLabs, MA, USA) and sequenced on Illumina HiSeq 2500 (San Diego, CA, USA). RNA-seq reads with adapter sequence were trimmed using cutadapt and aligned to the Mouse Ensemble Archive Release 100 by STAR [26]. Gene expression levels were quantified by RSEM [27]. Differential expression analysis was performed by DESeq2 [28], and functional enrichment of Gene ontology (GO) terms and pathways was estimated by Metascape. Pathway enrichment was estimated by GSEA [30] with the following options: “-metric log2_Ratio_of_Classes -permute gene_set.”
# 5xFAD mice [2] = assay: Y-maze test in 5xFAD mice; type: in vivo; settings: 10 mg/kg orally, 3 months
# Description: as §1
# The Y-maze test was conducted using a black y-shaped maze apparatus that has three equal-sized arms (40 × 3 × 12 cm) separated at 120° angles. The mice were placed into the same side of the arm at every trial and freely moved for 8 min under the dim light conditions (50 lx). To measure spatial memory, the number of arm entries to other sides was measured. The percentage of spontaneous alternation was calculated using the following formula: 100×(ActualAlteration/(Total#ofarmentrance-2)) . Sample sizes were 20–25 mice per group.
# 5xFAD mice [3] = assay: Immunohistochemistry of Aβ plaques (6e10) in 5xFAD brain; type: in vivo; settings: 10 mg/kg orally, 3 months, versus transgenic control
# Description: as §1
# Mice were perfused with ice-cold phosphate-buffered saline (PBS). Brain tissues were separately used for either molecular analysis or immunohistochemistry. The right hemisphere was fixed with 4% PFA and was transferred to a sucrose solution (30%) for 24 h. The right hemisphere was embedded and frozen in optimal cutting temperature compound on dry ice. Coronal Sections (18 μm thick) that included the hippocampus were cut and prepared on slide glasses. Tissue sections were then permeabilized and blocked using a blocking solution (5% goat serum and 0.2% Triton X-100 in PBS) for 1 h at room temperature. Primary antibody incubation was performed overnight at 4 °C using an anti-6e10 antibody (Biolegend, Japan, 1:100), anti-Iba1 antibody (Wako, Japan, 1:200), and anti-GFAP antibody (Abcam, Cambridge, UK, 1:200). […] Slides were counterstained in Hoechst and then mounted in fluorescence mounting medium (Dako, Denmark). […] Fluorescence was measured by calculating % area and was analyzed using ImageJ. […]
# 5xFAD mice [4] = assay: qPCR and western blot of inflammation markers in 5xFAD brain; type: in vivo
# Description: as §1
# Cells were lysed with lysis buffer containing 50 mM Tris (pH 7.4), 140 mM NaCl, 5 mM EDTA, and a protease inhibitor tablet, followed by sonication. Lysate protein concentrations were determined using Bradford reagents (AMERSCO, MA, USA). Proteins were resolved by sodium dodecyl sulfate (SDS) polyacrylamide gel electrophoresis, transferred to nitrocellulose membranes (Pall Corporation, New York, NY, USA), and incubated with blocking buffer (5% nonfat dry milk in TBS and 0.1% Tween 20) for 30 min. Western blot analyses were performed using primary antibodies against NF-κB, NLRP3, ASC, nicastrin, pen2 (Cell Signaling Technology, Danvers, MA, USA), Aph1 (Invitrogen), amyloid C-terminal fragment (Santa Cruz Biotechnology, Dallas, TX, USA), and GAPDH (Bethyl Laboratories, Mongomery, TX, USA). Secondary antibodies of rabbit (Promega), rat, and goat (Bethyl Laboratories) were used, and detection was performed with SUPEX ECL reagent (Neuronex, Korea) and an ImageQuant LAS-4000 (GE Healthcare, MA, USA), according to the manufacturer’s instructions. The integrated blot density was quantified through ImageJ.
# Total RNA was isolated using TRI Reagent (Molecular Research Center, Cincinnati, OH, USA). RNA was reverse transcribed using the ImProm-II™ Reverse Transcription System (Promega) according to the manufacturer’s instructions. For detection and quantification, a StepOnePlus Real-Time PCR System (Applied Biosystems, Foster City, CA, USA) was used with FastStart Universal SYBR Green Master (Roche, Basel, Switzerland). Real-time qPCR data were analyzed using the comparative CT method. Sample sizes were 10–15 mice per group.
# BV2 microglia cells = assay: ELISA of proinflammatory cytokines, BV2 microglia cells; type: cell-based, mouse; settings: LPS or pre-aggregated human Aβ1-42, 24 h
# Description: We measured cytokine level (TNF-α, IL-1β, and IL-6) in the media of LPS (1 μg/mL) and human Aβ1-42 (5 μg/mL)-treated BV2 microglia cells and primary microglia. Human Aβ1-42 (AnaSpec, Fremont, CA, USA) were pre-aggregated in the incubator for 24 h before the treatment to the cells. BV2 cells and primary microglia cells were seeded on 12-well plates (SPL) at a density of 1 × 10^5 cells/well cultured in 1 mL of complete media. After 12 h, LPS or human Aβ1-42 were treated to cells and were further incubated for 24 h with DTMB. ELISA experiments were conducted by using mouse TNF-α ELISA kit (Invitrogen, BMS607-3TEN), mouse IL-1β ELISA kit (Invitrogen, BMS6002), and mouse IL-6 ELISA kit (Invitrogen, BMS603-2) according to the manufacturer’s instruction.
# 5xFAD mice [5] = assay: Soluble/insoluble Aβ extraction, western blot and filter-trap assay; type: in vivo; settings: 10 mg/kg orally, 3 months
# Description: as §1
# To investigate soluble and insoluble Aβ components, two extraction steps were performed. Left hemisphere samples were homogenized in cold Tris-buffered saline (TBS consisting of 50 mM Tris-pH 7.5 and 150 mM NaCl) with a protease inhibitor cocktail (Thermo Fisher Scientific, Waltham, MO, USA) at a concentration of 100 mg/mL. After centrifugation at 15,000 rpm for 1 h at 4 °C, the supernatant of the samples was used to conduct western blotting. Insoluble protein was extracted from the pellet by dissolving in 5 M guanidine buffer (5 M guanidine HCl and 150 mM NaCl-pH 7.5). Soluble and insoluble protein samples were stored at −80 °C.
# The insoluble fraction of protein lysates in 5xFAD mice was diluted in 1% SDS-PBS and boiled at 95 °C for 5 min. The membrane was pre-equilibrated with 1 × TBS. A dot blotter apparatus (Bio-Rad Laboratories, Hercules, CA, USA) was used for sample application, and 6e10 antibody was used to detect Aβ contents from brain lysates of 5xFAD mice treated with DTMB. […]
# [6] = hippocampal brain lysates, 5xFAD mice
compound,measurement,setting,value
COc1ccc(-c2cc(=O)oc3c(C)c(OC(=O)[C@H](Cc4c[nH]c5ccccc45)NC(=O)OC(C)(C)C)ccc23)cc1 [DTMB],gene expression level of Ece1,5xFAD mice [1]; hippocampus,significantly increased
same,expression of neprilysin,"5xFAD mice [1]; hippocampus and cortex, not statistically significant (p-value is 0.27)",increased
same,Y-maze alternation,5xFAD mice [2],improvement with a percentage similar to that of the wild-type mouse group
same,amount of Aβ aggregates in the hippocampus and cortex,5xFAD mice [3],significantly decreased
same,"expression levels of proinflammatory cytokines and related enzymes (Il-1β, Il-6, and Inos)","5xFAD mice [4]; 5xFAD mouse brain, 10 mg/kg orally, 3 months",decreased
same,level of ASC,5xFAD mice [4]; [6],not changed significantly
same,protein level of NF-κB,5xFAD mice [4]; [6],decreased
same,protein level of NLRP3,5xFAD mice [4]; [6],decreased
same,"level of cytokines (TNF-α, IL-1β, IL-6) induced by inflammatory signals",BV2 microglia cells,dramatically reduced
same,Aβ aggregates in the insoluble fraction,5xFAD mice [5]; 5xFAD mice brain lysates,decreased
same,amyloid beta monomer,5xFAD mice [5]; 5xFAD mice brain,not decreased
